Where two headings read alike, the source gives them in different places.
Test system: resistant P. falciparum variant K1
Assay: Potency against resistant P. falciparum variant K1 (EC50)
Assay type: cell-based
Settings: Plasmodium falciparum

O=C(Nc1ccc(F)c(F)c1)c1c2c(nc3ccccc13)CCN(Cc1ccccc1)C2 [Compound 66, 2-Benzyl-N-(3,4-difluorophenyl)-1,2,3,4-tetrahydrobenzo[b][1,6]naphthyridine-10-carboxamide]
EC50 (K1, read-out: K1 EC50): 0.0108 µM | EC50 (K1, read-out: K1 EC50 (μM)): 0.279 µM
